Assay results taken from article PMC9820316, “Novel Arylpiperazine Derivatives of Salicylamide with α1-Adrenolytic Properties Showed Antiarrhythmic and Hypotensive Properties in Rats” (International Journal of Molecular Sciences, 2022).

Key:
[1] = molecular target: α2-adrenergic receptors; experiment: α2-adrenoceptor radioligand binding assay ([3H]-clonidine, rat cortex); details: rat cortex tissue, mean ± SEM, n.a. = did not bind at 10^−5 M
Experimental: (§1) The α1- and α2-adrenoceptor radioligand binding assays were performed on the rat cerebral cortex using previously described methods. […] The brains were homogenized using the ULTRA-TURRAX homogenizer in 10 mL of an ice-cold 50 mM Tris-HCl buffer (pH 7.6). The homogenates were centrifuged at 20,000× g for 20 min (0–4 °C). Subsequently, the cell pellet was resuspended in the Tris–HCl buffer and centrifuged again. Radioligand binding assays were carried out in plates (MultiScreen/Millipore). The final incubation mixture, with a volume of 300 μL, consisted of 240 μL of the tissue suspension, 30 μL of the radioligand solution, and 30 μL of the buffer containing 7–8 concentrations of the studied compounds. In order to measure the unspecific binding, 10 μM phentolamine (for [^3H]-prazosin) or 10 μM clonidine (for [^3H]-clonidine) were utilized. The incubation was completed by rapid filtration through Whatman GF/C filters using a vacuum manifold (Millipore). The filters were then washed twice with the assay buffer and placed in scintillation vials with a liquid scintillation cocktail. Radioactivity was measured in a WALLAC 1409 DSA liquid scintillation counter (Perkin Elmer, USA). All the assays were performed in duplicates, and the inhibitory constants (Ki) were calculated.

[2] = tested on: aconitine-induced arrhythmia model in rats; experiment: Prophylactic antiarrhythmic activity in aconitine-induced arrhythmia; assay type: in vivo, rat; details: 5 mg/kg iv 15 min before aconitine 20 μg/kg; number of animals with event
Experimental: (§2) The animals were anesthetized with thiopental (75 mg/kg ip). Depending on the model, either adrenaline, aconitine, or calcium chloride was used as an arrhythmogen. Adrenaline and aconitine were administered iv at a dose of 20 µg/kg, whereas calcium chloride was administered at a dose of 140 mg/kg to induce heart rhythm disturbances. The tested compounds were injected iv 15 min before the arrhythmogen. Aspel ASCARD apparatus (standard II lead, with the tape speed 50 mm/s and voltage calibration 1 mV = 1 cm) was used for ECG measurements. […] The ED50 was calculated using the method of Litchfield and Wilcoxon.

[3] = tested on: adrenaline-induced arrhythmia model in rats; experiment: Therapeutic antiarrhythmic activity in adrenaline-induced arrhythmia; details: 1 mg/kg iv immediately after adrenaline 20 µg/kg; number of animals with event
[4] = tested on: normal ECG in rats; experiment: Effect on a normal electrocardiogram in rats; assay type: in vivo, rat; details: 5 mg/kg iv; for HR—heart rate / PQ interval / QRS complex / QTc (Bazzett's formula): mean ± SD; for PQ interval / QRS complex / QTc (Bazzett's formula): in ms (unit assumed)
Experimental: The procedure was performed to exclude the negative effects of the tested compounds on the normal ECG, according to the method described earlier. […] Firstly, animals were anesthetized with thiopental (75 mg/kg ip). […] The influence on PQ, QTc interval, QRS complex, and heart rate was evaluated. The Bazzett’s formula: QTc = QT/√RR was used to calculate QTc. All the studied compounds were administered at a dose of 5 mg/kg.

[5] = molecular target: α1-adrenergic receptors; experiment: α1-adrenoceptor radioligand binding assay ([3H]-prazosin, rat cortex); details: rat cortex tissue, mean ± SEM
Experimental: as §1

[6] = tested on: calcium chloride-induced arrhythmia model in rats; experiment: Prophylactic antiarrhythmic activity in calcium chloride-induced arrhythmia; assay type: in vivo, rat; details: 5 mg/kg iv 15 min before calcium chloride 140 mg/kg; number of animals with event
Experimental: as §2

[7] = tested on: pressor response to methoxamine in rats; experiment: Influence on blood vasopressor response to methoxamine in rats; assay type: in vivo, rat; details: 5 mg/kg iv, methoxamine 150 μg/kg before and 5 min after compound
Experimental: The experiment was performed to establish the effect of the studied derivatives on the pressor response to methoxamine (150 µg/kg, iv), according to the methods described previously. Normotensive Wistar rats were anesthetized with thiopental (75 mg/kg ip). The right carotid artery was cannulated with a polyethylene tube filled with heparin solution using a Datamax apparatus (Columbus Instruments, Columbus, OH, USA). After a 15-min stabilization period, the pressor response to methoxamine before (control) and 5 min after the administration of the tested compounds was measured (Figure 4B). The tested compounds were administered at the lowest hypotensive dose.

[8] = tested on: adrenaline-induced arrhythmia model in rats; experiment: Prophylactic antiarrhythmic activity in adrenaline-induced arrhythmia; assay type: in vivo, rat; details: for Blocks / Bradycardia / Extrasystoles / Mortality: number of animals with event
Experimental: as §2

[9] = 0 min (prior to administration)
[10] = 0.02 mg/kg iv 15 min before adrenaline 20 μg/kg
[11] = 0.05 mg/kg iv 15 min before adrenaline 20 μg/kg
[12] = 0.1 mg/kg iv 15 min before adrenaline 20 μg/kg

With Clc1cccc(Cl)c1N=C1NCCN1 [Clonidine, clonidine, reference compound] the “Adrenergic Receptors—pKi α2” value [1] was 8.30 ± 0.01.

In the case of COc1ccccc1N1CCN(CCCCOc2ccccc2C(N)=O)CC1.Cl [JJGW07, 2-{4-[4-(2-metoxyphenyl)piperazin-1-ylo]butoxy}benzamide hydrochloride], the Blocks [2] is reported as 6/6, the Bradycardia [2] is reported as 6/6 and the Extrasystoles [2] is reported as 6/6. The Fibrillations [2] was 6/6, the Mortality [2] was 6/6 and the Blocks [3] was 2/5. The Bradycardia [3] was 1/5, the Mortality [3] was 0/5 and the “effect on the heart rate during the ECG recording” value [4] was “did not affect the heart rate”. The “HR—heart rate” value [4, 9] was 328.7 ± 9.3, the PQ interval [4, 9] was 40.7 ± 2.1 and the QRS complex [4, 9] was 47.0 ± 6.3. The “QTc (Bazzett's formula)” value [4, 9] was 196.5 ± 8.0, the “HR—heart rate” value ([4]; 5 min) was 341.2 ± 11.5 and the PQ interval ([4]; 5 min) was 40.0 ± 2.2. The QRS complex ([4]; 5 min) was 49.7 ± 7.9, the “QTc (Bazzett's formula)” value ([4]; 5 min) was 190.8 ± 4.2 and the “HR—heart rate” value ([4]; 10 min) was 333.2 ± 20.9. For the same compound, the PQ interval ([4]; 10 min) was 40.7 ± 3.7, the QRS complex ([4]; 10 min) was 48.7 ± 7.2 and the “QTc (Bazzett's formula)” value ([4]; 10 min) was 196.3 ± 9.5. For the same compound, the “HR—heart rate” value ([4]; 15 min) was 336.3 ± 20.9, the PQ interval ([4]; 15 min) was 40.7 ± 1.6 and the QRS complex ([4]; 15 min) was 48.7 ± 9.2. The “QTc (Bazzett's formula)” value ([4]; 15 min) was 192.4 ± 7.5, the “Adrenergic Receptors—pKi α1” value [5] was 7.85 ± 0.01 and the Blocks [6] was 6/6. The Bradycardia [6] was 6/6, the Extrasystoles [6] was 6/6 and the Fibrillations [6] was 6/6. For the same compound, the Mortality [6] was 6/6, the “attenuation of the methoxamine pressor response” value [7] was 100% and the Blocks [8, 10] was 6/6. The Bradycardia [8, 10] was 6/6, the Extrasystoles [8, 10] was 5/6 and the Mortality [8, 10] was 3/6. For the same compound, the Blocks [8, 11] was 4/6, the Bradycardia [8, 11] was 4/6 and the Extrasystoles [8, 11] was 5/6. For the same compound, the Mortality [8, 11] was 0/6, the Blocks [8, 12] was 3/6 and the Bradycardia [8, 12] was 3/6. For the same compound, the Extrasystoles [8, 12] was 4/6, the Mortality [8, 12] was 0/6 and the “ED50 value lower than that of carvedilol” value ([8]; adrenaline-induced arrhythmia, prophylactic, carvedilol ref 62) was 9 fold. For the same compound, the ED50 ([8]; prophylactic, iv 15 min before adrenaline 20 μg/kg, confidence limits in brackets (Litchfield and Wilcoxon)) was 0.04 (0.01–0.15) mg/kg.

Cc1ccc(N(CC2=NCCN2)c2cccc(O)c2)cc1 [Phentolamine, phentolamine, reference compound] was tested, and the “Adrenergic Receptors—pKi α1” value [5] was 8.05 ± 0.01.
